From US6409809B1 (priority 1999, dated 2002)

Test: QUV accelerated weathering exposure test of painted aluminum panels (colour fading, CIE La*b*)
Assay type: physicochemical
Conditions: Study I, 48 weeks; 6 hr UV/6 hr condensation cycles; mildewcide level 2.0 (% as is); phthalocyanine blue acrylic paint
Protocol: An exposure test was conducted in two studies to determine the effect of weathering (UV exposure and/or condensation) on samples of panels with paints containing chlorothalonil, tetraconazole, and chlorothalonil/tetraconazole blend additives, respectively. The panels were aluminum having a 3003 alloy mill finish. One coating (6 mils thick when wet) of the selected paint was applied to each panel and allowed to air dry for 7 days at ambient temperature. Simulated weathering was performed by exposure of the panels to a QUV accelerated weathering tester providing UVA radiation at a power consumption of 1200 Watts (110 volts, 60 Hz). The exposure was conducted in alternating and repeating 6-hour cycles, one 6-hour cycle being an ultraviolet radiation exposure cycle (conducted at 80° C.), and the other cycle being a condensation cycle wherein the panels are exposed to moisture (conducted at 60°). The results are set forth below in Table I. CIE La*b* System describes a color space wherein ‘a’ is the green(−)/[…] axis. ‘L’ is lightness; ‘C’ is chroma or saturation.

FC(F)C(F)(F)OCC(Cn1cncn1)c1ccc(Cl)cc1Cl (centres unmarked) [TCZ, Tetraconazole]
DC vs. Blank: 1.02 | DL vs. Blank: −2.20
